{"source": "patent US11001802B2", "about": "“Surface of a vessel with polystyrene, nitrogen, oxygen and a static sessile contact angle for attachment and cultivation of cells” (Nunc A/S, priority 2008, dated 2021)", "key": {"H9 human ES cells": {"test_system": "H9 human ES cells", "experiment": "H9 human ES cell attachment to surface Nunc4 in defined media mTeSR (Example 14)", "format": "cell-based", "details": "20 micromolar Y-27632", "protocol": "Passage 49 H9 human ES cells were passaged twice in the define media, mTeSR™, on Matrigel™-treated plasticware. The cells were then LIBERASE treated and plated onto the surface modified plate Nunc4 in mTeSR™ media. Cells were either plated in media with or without 20 micromolar Y-27632. Wells were also treated with various proteins for 30 minutes prior to seeding cells (no treatment, 0.1% gelatin, 2% BSA, 0.34 mg/ml rat Collagen I, 1:1000 Matrigel™, or 1:5000 Matrigel™) to determine if these proteins could promote human ES cell adhesion in defined media with or without Y-27632 (FIG. 28). […] However, when 20 micromolar Y-27632 was added to define mTeSR™ media, human ES cells adhered to surface Nunc4. Furthermore, this adherence was equivalent in untreated wells and wells treated with 0.1% gelatin, 2% BSA, and 0.34 mg/ml rat Collagen I. There was a modest increase in human ES cell attachment in wells with low concentrations of Matrigel™ (1:1000 and 1:5000 dilutions), however these concentrations of Matrigel™ were insufficient to promote adhesion in the absence of Y-27632."}, "HEK293 cells": {"test_system": "HEK293 cells", "experiment": "HEK293 cell attachment, number of viable cells by LDH activity (Example 19)", "format": "cell-based, human", "details": "Surface 4 and CellBIND surface, 2.0 and 5.0 μM", "text": "Human embryonic kidney cells 293 (HEK293, ECACC no. 85120602) were maintained in Eagle's Minimum Essential Medium (EMEM; Lonza, Verviers, Belgium) containing 10% fetal bovine serum (FBS; Lonza). The cells were adapted to Pro293a-CDM medium (Lonza), a chemically defined, serum-free medium optimized for cultivation of adherent HEK293, by gradually and over several passages using the sequential ratios of 3:1, 1:1, 1:3, 1:7, and finally 0:1 of serum-supplemented EMEM and Pro293a-CDM medium. For maintenance and adaptation, HEK293 cells were seeded at 2.0×10^4 cells/cm^2 in 75-cm^2 flasks with Nunclon Delta™ surface (Thermo Fisher Scientific, Roskilde, Denmark) and passaged at 70-80%/confluence using Trypsin/EDTA for dissociation.\nAnother 100 μl of Pro293a-CDM medium with HEK293 cells was added to the wells (4.0×10^4 cells/cm^2). […]\nThe number of viable cells in the wells was then determined using a lactate dehydrogenase (LDH) activity kit from Roche, Switzerland. […] The reaction was stopped by adding 50 μl of 1.0 M HCl, and the absorbance at 490 nm was measured in a microplate reader (Genios Pro; Tecan, Austria). The number of cells was calculated using the A490 values from these samples and from standards containing LDH from a known number of cells. […]"}, "human ES cell line H9": {"test_system": "human ES cell line H9", "experiment": "Adhesion and growth of H9 cells passaged as single cells on surface modified plates (Examples 6, 8)", "format": "cell-based", "protocol": "Human ES cells of the cell line H9 were grown as single cells according to the methods disclosed in US patent Application LFS5163USPSP, assigned to LifeScan Inc. Cells were passaged by treatment with TrypLE™ Express for five minutes at 37° C., and seeded at 10,000 cells/cm^2 substrate surface.\nInitial passaging of H9 human ES cells onto surface modified plates. Adhesion is improved with continuous 10 μM of Y-27632. This is true for the four surface modified plates tested: 2, 3, 4 and 13.\nThe role of Y-27632 in human ES cell adhesion and cell growth was studied in relation to the surface modified plates. H9 human ES cells were passaged 38 times with collagenase and 50 times with TrypLE™ Express followed by seeding onto Surfaces modified plates 3 or 4 (naïve cells). Alternatively H9 human ES cells passaged 38 times with collagenase and 38 times with Triple Express followed by 9 passages on surface modified plate 3 (Surface 3, acclimated cells), or surface modified plate 4 (Surface 4, acclimated cells). Cells were seeded at a density of 10^4/cm^2 in MEF conditioned media and grown for two days with or without the presence of 10 μM of Y-27632. […] Surface modified plate 4 improved attachment and/or growth of acclimated human ES cells. The cells were followed for a total of 4 days (FIGS. 19 and 20)."}}}
{"compound": "C[C@@H](N)[C@H]1CC[C@H](C(=O)Nc2ccncc2)CC1", "note": "[Surface Y-27632, Y-27632]", "values": [{"measurement": "adherence of human ES cells in defined mTeSR media", "setting": "H9 human ES cells", "value": "adhered"}, {"measurement": "attachment of HEK293 cells", "setting": "HEK293 cells; EMEM with 10% FBS", "value": "enhanced attachment"}, {"measurement": "attachment of HEK293 cells", "setting": "HEK293 cells; Pro293a-CDM medium", "value": "enhanced attachment"}, {"measurement": "attachment of naïve single cells", "setting": "human ES cell line H9; 10 μM Y-27632, surface modified plates 3 and 4", "value": "improves attachment"}, {"measurement": "attachment of acclimated single cells", "setting": "human ES cell line H9; 10 μM Y-27632, surface modified plates 3 or 4", "value": "did not improve attachment"}, {"measurement": "adhesion of H9 cells passaged with TrypLE Express", "setting": "human ES cell line H9; continuous 10 μM Y-27632, surface modified plates 2, 3, 4 and 13", "value": "improved"}]}
